Starred links: 1 amine or outer side, 2 acyl side, 3 side chain; linkers in the order of their positions; H or OH if unused. Non-standard residues stand in square brackets, D forms with d. Residues, ends and D or L forms follow the SMILES beside them. X1 = CCNC[C@@H](C(=O)[*:2])N(C)[*:1]; pGlu = O=C1CC[C@@H](C(=O)O)N1; NMeS = CN[C@@H](CO)C(=O)O; Sar = CNCC(=O)O
What was measured:
[1] = biological target: T1, LH release (Rattus norvegicus, UniProt P30969); experiment: In vitro LH release from dissociated rat pituitary cells (agonists); type: cell-based; settings: negative log of concentration producing half-maximal release of LH, 3 hours at 37° C.
T1 sequence (P30969 1-327): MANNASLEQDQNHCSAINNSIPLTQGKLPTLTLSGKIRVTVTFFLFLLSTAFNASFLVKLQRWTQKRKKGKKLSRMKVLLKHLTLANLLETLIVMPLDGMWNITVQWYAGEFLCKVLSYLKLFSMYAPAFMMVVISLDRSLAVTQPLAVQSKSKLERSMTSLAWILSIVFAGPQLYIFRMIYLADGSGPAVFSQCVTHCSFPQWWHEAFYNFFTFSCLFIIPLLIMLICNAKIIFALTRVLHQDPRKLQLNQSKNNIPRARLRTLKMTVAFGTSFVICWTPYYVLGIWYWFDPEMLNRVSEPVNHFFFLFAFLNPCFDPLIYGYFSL
Method: Rat pituitaries are removed from immature female rats, minced, and dissociated with collagenase/hyaluronidase. They are allowed to attach to 48-well microtiter plates for 48-72 hours, then are exposed to test compounds for 3 hours at 37° C. The medium is assayed for released LH by RIA (radioimmunoassay).

[2] = biological target: T1, LH release; experiment: In vivo LH release in castrated rats; settings: dose producing half-maximal LH release, time integrated LH response; for ED50: rat, iv, i.v., read-out: ED50 ug/kg i.v.
Method: The compound to be tested is administered to castrated rats intraveneously and the serum LH concentration at various time points is measured by RIA. The time integrated LH response is calculated and the dose producing half-maximal LH release (ED50) is reported.

[3] = biological target: T2, LHRH receptors (Rattus norvegicus, UniProt P30969); experiment: Radioligand receptor binding assay, rat pituitary membranes; settings: radioiodinated [D-Leu6-des Gly10]-LHRH ethyl amide 50 pM, 2 hours at 4° C., read-out: Receptor Binding pkI (converted)
T2 sequence (P30969 1-327): T1 sequence (P30969 1-327)
Method: The radioligand (50 pM), receptors, and compounds to be tested are coincubated for 2 hours at 4° C. Bound ligand is separated from free ligand via centrifugation and aspiration.

CCNC(=O)[C@@H]1CCCN1C(=O)[C@H](CCCNC(=N)N)NC(=O)[C@H](CC(C)C)NC(=O)[C@@H](CC(C)C)NC(=O)[C@H](Cc1ccc(O)cc1)NC(=O)[C@H](CO)N(C)C(=O)[C@H](Cc1c[nH]c2ccccc12)NC(=O)[C@H](Cc1c[nH]cn1)NC(=O)[C@@H]1CCC(=O)N1 [Ex. 1, (pyro)Glu-His-Trp-N-Me-Ser-Tyr-D-Leu-Leu-Arg-Pro-NHEt] ([pGlu]HW[NMeS]Y[dL]LRP-NHEt)
LH Release pD2 [1]: 9.43 | ED50 [2]: 7.2 µg/kg

CC(C)C[C@H](NC(=O)[C@@H](Cc1ccc2ccccc2c1)NC(=O)[C@H](Cc1ccc(O)cc1)NC(=O)[C@H](CO)N(C)C(=O)[C@H](Cc1c[nH]c2ccccc12)NC(=O)[C@H](Cc1c[nH]cn1)NC(=O)[C@@H]1CCC(=O)N1)C(=O)N[C@@H](CCCNC(=N)N)C(=O)N1CCC[C@H]1C(=O)NCC(N)=O [Ex. 3, (pyro)Glu-His-Trp-N-Me-Ser-Tyr-D-(2)-Nal-Leu-Arg-Pro-Gly-NH2]
ED50 [2]: 0.129 µg/kg

CCNC[C@@H](C(=O)N[C@@H](Cc1ccc(O)cc1)C(=O)N[C@H](Cc1c[nH]c2ccccc12)C(=O)N[C@@H](CC(C)C)C(=O)N[C@@H](CCCNC(=N)N)C(=O)N1CCC[C@H]1C(=O)NCC)N(C)C(=O)[C@H](Cc1c[nH]c2ccccc12)NC(=O)[C@H](Cc1c[nH]cn1)NC(=O)CN(C)C(C)=O [Ex. 7, N-Ac-Sar-His-Trp-(3)-N-Et-(2)-N-Me-Dap-Tyr-D-Trp-Leu-Arg-Pro-NHEt] (Ac-[Sar]HW[X1]Y[dW]LRP-NHEt)
LH Release pD2 [1]: 9.73 | ED50 ug/kg i.v. [2]: 9.64 µg/kg

CCNC(=O)CC[C@H](NC(=O)NCC)C(=O)N[C@@H](Cc1c[nH]cn1)C(=O)N[C@@H](Cc1c[nH]c2ccccc12)C(=O)N(C)[C@@H](CO)C(=O)N[C@@H](Cc1ccc(O)cc1)C(=O)N[C@H](Cc1c[nH]c2ccccc12)C(=O)N[C@@H](CC(C)C)C(=O)N[C@@H](CCCNC(=N)N)C(=O)N1CCC[C@H]1C(=O)NCC [Ex. 12, (2)-N-(Ethylaminocarbonyl)-(5)-N-ethylamido-Glu-His-Trp-N-Me-Ser-Tyr-D-Trp- Leu-Arg-Pro-NHEt]
LH Release pD2 [1]: 9.31 | Ki [3]: 1.05 nM | ED50 [2]: 9.9 µg/kg

CCNC(=O)[C@@H]1CCCN1C(=O)[C@H](CCCNC(=N)N)NC(=O)[C@H](CC(C)C)NC(=O)[C@@H](Cc1c[nH]c2ccccc12)NC(=O)[C@H](Cc1ccc(O)cc1)NC(=O)[C@H](CO)N(C)C(=O)[C@H](Cc1c[nH]c2ccccc12)NC(=O)[C@H](Cc1c[nH]cn1)NC(=O)CN(C)C(C)=O [Ex. 14, N-AcSar-His-Trp-N-Me-Ser-Tyr-D-Trp-Leu-Arg-Pro-NHEt] (Ac-[Sar]HW[NMeS]Y[dW]LRP-NHEt)
ED50 [2]: 0.39 µg/kg

CCNC(=O)[C@@H]1CCCN1C(=O)[C@H](CCCNC(=N)N)NC(=O)[C@H](CC(C)C)NC(=O)[C@@H](Cc1c[nH]c2ccccc12)NC(=O)[C@H](Cc1ccc(O)cc1)NC(=O)[C@H](CO)N(C)C(=O)[C@H](Cc1c[nH]c2ccccc12)NC(=O)[C@H](Cc1c[nH]cn1)NC(=O)[C@@H]1CCC(=O)N1 [Ex. 15, (pyro)Glu-His-Trp-N-Me-Ser-Tyr-D-Trp-Leu-Arg-Pro-NHEt]
ED50 [2]: 1.38 µg/kg

CC(C)C[C@H](NC(=O)CNC(=O)[C@H](Cc1ccc(O)cc1)NC(=O)[C@H](CO)NC(=O)[C@H](Cc1c[nH]c2ccccc12)NC(=O)[C@H](Cc1c[nH]cn1)NC(=O)[C@@H]1CCC(=O)N1)C(=O)N[C@@H](CCCNC(=N)N)C(=O)N1CCC[C@H]1C(=O)NCC(N)=O [LHRH, reference compound]
ED50 [2]: 100 µg/kg
